According to patent US9603896B2, “Peptide compounds and methods of production and use thereof” (priority 2012, dated 2017):
Square brackets hold non-standard residues; d marks the D form. Ends that are not written are not given here. Peptide text beside a SMILES is read from it. AEEA = NCCOCCOCC(=O)O

Columns and labels:
[1] = system: P. aeruginosa (ATCC® 27853™); assay: Pseudomonas keratitis model in the mouse eye; type: in vivo
Description: A circular wound was created on the mouse cornea by removing the epithelium and infected with 10^5 colony forming units (CFU) of P. aeruginosa (ATCC® 27853™ (American Type Culture Collection, Manassas, Va.)). Infected wounds were treated with saline (0.9% sodium chloride, vehicle control) or saline containing indicated concentrations of peptide every 15 minutes for 2 hours, then every 30 minutes for 3 hours on the first day. Infected wounds were treated twice on the second day and once on the third day. Mice were killed at 48 hours post-infection, and CFU/eye were quantified. The means were plotted and are representative of 5 to 9 mice per group. Mann Whitney test was performed for each group as compared to the saline control group. *P=0.014.
A circular wound (2 mm) was created on the mouse cornea by removing the epithelium and infecting the wound with 10^5 CFU of P. aeruginosa (ATCC® 27853™ (American Type Culture Collection, Manassas, Va.)). Infected wounds were treated with saline or saline containing indicated concentrations of peptide every 15 minutes for 2 hours, then every 30 minutes for 3 hours on the first day. Infected wounds were treated twice on the second day and once on the third day. Mice were killed at 48 hours post-infection, and the colony forming units per eye (CFU/eye) were quantified. The means are plotted and are representative of 5 to 9 mice per group. Mann Whitney test was performed for each group as compared to the saline control group.
For FIGS. 15-17, in vivo bactericidal activity of the peptides was also investigated using the standard Pseudomonas keratitis model in the mouse eye (FIGS. 15-17). Peptides 120-146QR-5RMP (SEQ ID NO:32), 120-146WH (SEQ ID NO:31), and 120-146WR (SEQ ID NO: 30) were applied topically at doses of 2, 5, 10, and 20 mg/ml to the wounded cornea that had been infected with 10^5 CFU of Pseudomonas aeruginosa. The efficacies of the peptides were compared to treatment with the vehicle control. Mice were euthanized at 48 hours post infection, and the CFU/eye were quantified.

[2] = system: Pseudomonas aeruginosa ATCC® 27853™; type: cell-based
Description: The three peptide compounds BCC01-5RMP (SEQ ID NO:21), BCC02-5RMP (SEQ ID NO:22), and BCC03-5RMP (SEQ ID NO:23) were assayed for in vitro bactericidal activity against Pseudomonas aeruginosa, Escherichia coli, Salmonella typhimurium, and Acinetobacter baumannii. […] The CFU remaining at the end of 60 to 180 minute incubation was determined, and the data plotted as a log reduction in CFU/ml.
Tables 4-6 show the results of various peptides and peptide compounds against P. aeruginosa and E. coli strains. Tables 4 and 5 show the results of an investigation of the effects of peptide or peptide compounds BCC03-5RMP (SEQ ID NO:23), BCC03-MP (SEQ ID NO:24) and BCC03-5R (SEQ ID NO:20) against P. aeruginosa ATCC® strain 27853™ and E. coli ATCC® strain 25922™ (American Type Culture Collection, Manassas, Va.). […] Table 6 compares the activity of several other compounds, including the “5R” versions of BCC01, i.e., SEQ ID NO:18 (which comprises SEQ ID NO:1 with five additional arginines), the “5R” version of BCC02 (i.e., SEQ ID NO:19, which comprises SEQ ID NO:2 with five additional arginines), and BCC03-5RMP (SEQ ID NO:23), and BCC03-MP (SEQ ID NO:24, i.e., without the five additional R residues). The data generally indicate the superiority of BCC03-5RMP (SEQ ID NO:23) against E. coli, and the superiority of the 5R or 5RMP versions of the peptide over the “AEEA only” peptide against P. aeruginosa.
(§1) For FIGS. 10-13, in vitro bactericidal assays were performed using a starting inoculum of 1×10^6 CFU/ml of the bacterial suspension. The CFU remaining at the end of the 60-180 minute incubation was determined, and the data was plotted as log reduction in CFU/ml.
(§2) In particular, each of the test peptides (CAP37 peptides 120-146WR, 120-146WH, and 95-122 (SEQ ID NOs: 30, 31, and 26, respectively)) was used at 25, 12.5, 6.25, and 3.12 μM. Gentamicin was used at 4 μg/ml. 1×10^6/ml Acinetobacter baumannii ATCC® BAA-747″ or Pseudomonas aeruginosa ATCC® 27853™ (American Type Culture Collection, Manassas, Va.) were incubated with the peptides, negative buffer control (tryptone saline), and positive control gentamicin at pH 5.5 or 7.2. A 60 minute incubation was used for Acinetobacter baumannii ATCC® BAA747™, while a 180 minute incubation was used for Pseudomonas aeruginosa ATCC® 27853™. 50 μl aliquots were plated out on agar plates and incubated overnight. Colony forming units were counted after overnight incubation and CFU/ml calculated.
For FIG. 14, 1×10^6/ml Pseudomonas aeruginosa ATCC® 27853™ were incubated with each of the test peptides (CAP37 peptides 120-146WR, 120-146WH, 120-146QR, 120-146QH, 120-146QR-5RMP, and 120-146QH-5RMP (SEQ ID NOs: 30, 31, 28, 29, 32, and 33, respectively)) at 150, 75, and 37.5 μg/ml, or negative buffer control (tryptone saline), for 180 minutes at pH 5.5. 50 μl aliquots were plated out on agar plates and incubated overnight. Colony forming units were counted after overnight incubation and CFU/ml calculated.

[3] = system: Acinetobacter baumannii ATCC® BAA-747™; assay: In vitro bactericidal assay (CFU remaining, log reduction); type: cell-based; details: for reduction of CFU/ml: 60 minutes, highest peptide concentrations (25 μM)
Description: The three peptide compounds BCC01-5RMP (SEQ ID NO:21), BCC02-5RMP (SEQ ID NO:22), and BCC03-5RMP (SEQ ID NO:23) were assayed for in vitro bactericidal activity against Pseudomonas aeruginosa, Escherichia coli, Salmonella typhimurium, and Acinetobacter baumannii. The starting inoculum for all experiments was 1×10^6 colony forming units (CFU)/ml. The CFU remaining at the end of 60 to 180 minute incubation was determined, and the data plotted as a log reduction in CFU/ml.
as §1, §2

| Compound | mice with no viable bacteria in the eye after treatment ([1]; 10 and 20 mg/ml groups together) | CFU/eye at 48 hours post infection vs saline ([1]; topical, doses of 10 and 20 mg/ml) | reduction in CFU (FIG. 14) ([2]; pH 5.5, 180 minutes, 75 μg/ml) | infection (CFU/eye) at 48 hours post infection vs saline ([1]; topical, 5, 10, and 20 mg/ml) | activity against P. aeruginosa ([2]; 120-146WR at 25 μM, gentamicin 4 μg/ml) | reduction of CFU (FIG. 14) ([2]; pH 5.5, 180 minutes, highest concentrations (150 μg/ml)) | reduction of CFU/ml ([2]; pH 7.2, 180 minutes, highest concentrations of peptides (25 μM)) | bactericidal activity against Pseudomonas aeruginosa ([2]; pH 7.2, 180 minutes, peptides at 25 μM) | activity against A. baumannii ([3]; 12.5 μM) | activity against A. baumannii ([3]; 25 μM) | reduction of CFU/ml ([3]; pH 5.5) | reduction of CFU/ml ([3]; pH 7.2) |
| --- | --- | --- | --- | --- | --- | --- | --- | --- | --- | --- | --- | --- |
| CC(C)C[C@H](NC(=O)[C@H](CCCNC(=N)N)NC(=O)CNC(=O)CNC(=O)[C@H](CO)NC(=O)[C@H](CCCNC(=N)N)NC(=O)[C@H](CCC(N)=O)NC(=O)[C@H](CO)NC(=O)CNC(=O)[C@H](Cc1c[nH]c2ccccc12)NC(=O)CNC(=O)[C@H](C)NC(=O)[C@@H](NC(=O)[C@H](CCC(N)=O)NC(=O)[C@H](CS)NC(=O)[C@H](CCCNC(=N)N)NC(=O)[C@@H](NC(=O)CNC(=O)[C@H](CCCNC(=N)N)NC(=O)[C@H](CCCNC(=N)N)NC(=O)[C@H](CCCNC(=N)N)NC(=O)[C@H](CCCNC(=N)N)NC(=O)COCCOCCNC(=O)COCCOCCN)[C@@H](C)O)C(C)C)C(=O)N[C@@H](CO)C(=O)N[C@@H](CCCNC(=N)N)C(=O)N[C@@H](Cc1ccccc1)C(=O)N1CCC[C@H]1C(=O)N[C@@H](CCCNC(=N)N)C(=O)N[C@@H](Cc1ccccc1)C(=O)N[C@H](C(=O)N[C@@H](CC(N)=O)C(=O)N[C@H](C(=O)N[C@@H](CCCNC(=N)N)C(=O)O)C(C)C)C(C)C [120-146QR-5RMP] (H-[AEEA][AEEA]RRRRGTRCQVAGWGSQRSGGRLSRFPRFVNVR-OH) | Six of the 10 | significantly reduced the CFU/eye | ~6 log | – | – | – | – | – | – | – | – | – |
| GTRCQVAGWGSWRSGGRLSRFPRFVNV [Peptide 120-146WR] | – | – | – | significantly reduced infection | highly active | 6 logs | 6 logs | as effective as the standard antibiotic gentamicin | highly active | highly active | ~4 logs | ~5.5 logs |
